Laboratory results as given in ChEMBL document CHEMBL1201861, “Genomics of Drug Sensitity in Cancer screening data, Wellcome Trust Sanger Institute”.

How the values were obtained:
Test in all cases: cells
NCI-H1650 = type: functional, cell-based, Homo sapiens; conditions: Homo sapiens, NCI-H1650;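 also: growth inhibition of human NCI-H1650 cells measured by a cell viability assay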
Description: SANGER: Inhibition of human NCI-H1650 cell growth in a cell viability assay.

647-V = type: functional, cell-based, Homo sapiens; conditions: Homo sapiens, 647-V;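 also: growth inhibition of 647-V cells, read out with a cell viability assay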
Description: SANGER: Inhibition of human 647-V cell growth in a cell viability assay.

HEL = type: functional, cell-based, Homo sapiens; conditions: Homo sapiens, HEL;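 also: growth inhibition of HEL cells, read out with a cell viability assay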
Description: SANGER: Inhibition of human HEL cell growth in a cell viability assay.

OVCAR-5 = type: functional, cell-based, Homo sapiens; conditions: Homo sapiens, OVCAR-5;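 also: growth inhibition of human OVCAR-5 cells, read out with a cell viability assay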
Description: SANGER: Inhibition of human OVCAR-5 cell growth in a cell viability assay.

HCC1937 = type: functional, cell-based, Homo sapiens; conditions: Homo sapiens, HCC1937;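 also: growth inhibition measured with a cell viability read-out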
Description: SANGER: Inhibition of human HCC1937 cell growth in a cell viability assay.

PC-3 = type: functional, cell-based, Homo sapiens; conditions: Homo sapiens, PC-3;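 also: cell viability assay measuring growth inhibition of PC-3 cells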
Description: SANGER: Inhibition of human PC-3 cell growth in a cell viability assay.

UACC-62 = type: functional, cell-based, Homo sapiens; conditions: Homo sapiens, UACC-62;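 also: growth inhibition of human UACC-62 cells, read out by a cell viability assay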
Description: SANGER: Inhibition of human UACC-62 cell growth in a cell viability assay.

COLO-678 = type: functional, cell-based, Homo sapiens; conditions: Homo sapiens, COLO-678
Description: SANGER: Inhibition of human COLO-678 cell growth in a cell viability assay.

OE19 = type: functional, cell-based, Homo sapiens; conditions: Homo sapiens, OE19;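 also: growth inhibition of OE19 cells, measured through a cell viability read-out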
Description: SANGER: Inhibition of human OE19 cell growth in a cell viability assay.

RD = type: functional, cell-based, Homo sapiens; conditions: Homo sapiens, RD
Description: SANGER: Inhibition of human RD cell growth in a cell viability assay.

Becker = type: functional, cell-based, Homo sapiens; conditions: Homo sapiens, Becker;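 also: growth inhibition of Becker cells, read out with a cell viability assay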
Description: SANGER: Inhibition of human Becker cell growth in a cell viability assay.

697 = type: functional, cell-based; conditions: Homo sapiens
Description: SANGER: Inhibition of human 697 cell growth in a cell viability assay.

MCF7 = type: functional, cell-based, Homo sapiens; conditions: Homo sapiens, MCF7;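 also: growth inhibition of human MCF7 cells, read out with a cell viability assay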
Description: SANGER: Inhibition of human MCF7 cell growth in a cell viability assay.

HuO-3N1 = type: functional, cell-based, Homo sapiens; conditions: Homo sapiens, HuO-3N1;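 also: cell viability readout used to measure how strongly compounds suppress proliferation of human HuO-3N1 cells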
Description: SANGER: Inhibition of human HuO-3N1 cell growth in a cell viability assay.

SW780 = type: functional, cell-based, Homo sapiens; conditions: Homo sapiens, SW780;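 also: growth inhibition of the cells, read out with a cell viability assay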
Description: SANGER: Inhibition of human SW780 cell growth in a cell viability assay.

KP-N-YS = type: functional, cell-based; conditions: Homo sapiens;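 also: cell viability assay measuring inhibition of cell line growth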
Description: SANGER: Inhibition of human KP-N-YS cell growth in a cell viability assay.

DEL = type: functional, cell-based; conditions: Homo sapiens;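 also: growth inhibition of the human DEL cell line, read out with a cell viability assay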
Description: SANGER: Inhibition of human DEL cell growth in a cell viability assay.

BHY = type: functional, cell-based, Homo sapiens; conditions: Homo sapiens, BHY;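 also: cell growth inhibition read out by a viability assay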
Description: SANGER: Inhibition of human BHY cell growth in a cell viability assay.

SW1463 = type: functional, cell-based, Homo sapiens; conditions: Homo sapiens, SW1463;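 also: growth inhibition of SW1463 cells, determined with a cell viability assay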
Description: SANGER: Inhibition of human SW1463 cell growth in a cell viability assay.

LOX IMVI = type: functional, cell-based; conditions: Homo sapiens
Description: SANGER: Inhibition of human LOXIMVI cell growth in a cell viability assay.

COLO-792 = type: functional, cell-based, Homo sapiens; conditions: Homo sapiens, COLO-792
Description: SANGER: Inhibition of human COLO-792 cell growth in a cell viability assay.

NCI-H1355 = type: functional, cell-based, Homo sapiens; conditions: Homo sapiens, NCI-H1355;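 also: growth inhibition of human NCI-H1355 cells, read out by a cell viability assay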
Description: SANGER: Inhibition of human NCI-H1355 cell growth in a cell viability assay.

EW-11 = type: functional, cell-based, Homo sapiens; conditions: Homo sapiens, EW-11;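 also: growth inhibition of human EW-11 cells, measured with a cell viability assay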
Description: SANGER: Inhibition of human EW-11 cell growth in a cell viability assay.

HD-MY-Z = type: functional, cell-based, Homo sapiens; conditions: Homo sapiens, HD-MY-Z;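 also: growth inhibition of HD-MY-Z cells, read out with a cell viability assay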
Description: SANGER: Inhibition of human HD-MY-Z cell growth in a cell viability assay.

MG-63 = type: functional, cell-based, Homo sapiens; conditions: Homo sapiens, MG-63;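 also: growth inhibition of human MG-63 cells, read out with a cell viability assay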
Description: SANGER: Inhibition of human MG-63 cell growth in a cell viability assay.

MMAC-SF = type: functional, cell-based, Homo sapiens; conditions: Homo sapiens, MMAC-SF;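 also: growth inhibition of human MMAC-SF cells, read out with a cell viability assay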
Description: SANGER: Inhibition of human MMAC-SF cell growth in a cell viability assay.

A4-Fuk = type: functional, cell-based; conditions: Homo sapiens;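 also: growth inhibition of A4-Fuk cells, read out by a cell viability assay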
Description: SANGER: Inhibition of human A4-Fuk cell growth in a cell viability assay.

TE-1 = type: functional, cell-based, Homo sapiens; conditions: Homo sapiens, TE-1;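 also: growth inhibition of the human TE-1 cell line, read out with a cell viability assay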
Description: SANGER: Inhibition of human TE-1 cell growth in a cell viability assay.

S-117 = type: functional, cell-based, Homo sapiens; conditions: Homo sapiens, S-117
Description: SANGER: Inhibition of human S-117 cell growth in a cell viability assay.

SCC-9 = type: functional, cell-based, Homo sapiens; conditions: Homo sapiens, SCC-9;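 also: Read-out is a cell viability assay, with values giving inhibition of cell growth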
Description: SANGER: Inhibition of human SCC-9 cell growth in a cell viability assay.

SW48 = type: functional, cell-based, Homo sapiens; conditions: Homo sapiens, SW48;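 also: growth inhibition of SW48 cells, read out with a cell viability assay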
Description: SANGER: Inhibition of human SW48 cell growth in a cell viability assay.

ES6 = type: functional, cell-based, Homo sapiens; conditions: Homo sapiens, ES6;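 also: growth inhibition of human ES6 cells, read out with a cell viability assay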
Description: SANGER: Inhibition of human ES6 cell growth in a cell viability assay.

OCUB-M = type: functional, cell-based, Homo sapiens; conditions: Homo sapiens, OCUB-M;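 also: growth inhibition of the cancer cell line, read out through a cell viability assay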
Description: SANGER: Inhibition of human OCUB-M cell growth in a cell viability assay.

LXF-289 cell line = type: functional, cell-based, Homo sapiens; conditions: Homo sapiens, LXF-289
Description: SANGER: Inhibition of human LXF-289 cell growth in a cell viability assay.

Calu-6 = type: functional, cell-based, Homo sapiens; conditions: Homo sapiens, Calu-6;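 also: growth of human Calu-6 cells, read out by a cell viability assay, IC50 marking inhibition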
Description: SANGER: Inhibition of human Calu-6 cell growth in a cell viability assay.

SNU-C2B = type: functional, cell-based, Homo sapiens; conditions: Homo sapiens, SNU-C2B;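 also: cell viability readout used to measure compound-driven suppression of SNU-C2B cell proliferation, IC50 marking half-maximal growth inhibition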
Description: SANGER: Inhibition of human SNU-C2B cell growth in a cell viability assay.

PC-14 = type: functional, cell-based, Homo sapiens; conditions: Homo sapiens, PC-14;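 also: cell viability assay measuring inhibition of PC-14 cell growth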
Description: SANGER: Inhibition of human PC-14 cell growth in a cell viability assay.

COLO-668 = type: functional, cell-based, Homo sapiens; conditions: Homo sapiens, COLO-668
Description: SANGER: Inhibition of human COLO-668 cell growth in a cell viability assay.

NCI-H28 = type: functional, cell-based, Homo sapiens; conditions: Homo sapiens, NCI-H28;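 also: growth inhibition of human NCI-H28 cells, read out as cell viability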
Description: SANGER: Inhibition of human NCI-H28 cell growth in a cell viability assay.

Hs-578T = type: functional, cell-based, Homo sapiens; conditions: Homo sapiens, Hs-578T
Description: SANGER: Inhibition of human Hs-578-T cell growth in a cell viability assay.

HMV-2 cell line = type: functional, cell-based, Homo sapiens; conditions: Homo sapiens, HMV-2;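 also: growth inhibition of HMV-II cells, read out with a cell viability assay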
Description: SANGER: Inhibition of human HMV-II cell growth in a cell viability assay.

CAL-27 = type: functional, cell-based, Homo sapiens; conditions: Homo sapiens, CAL-27;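 also: Viability-based readout, IC50 reflecting inhibition of CAL-27 cell growth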
Description: SANGER: Inhibition of human CAL-27 cell growth in a cell viability assay.

ML-2 = type: functional, cell-based; conditions: Homo sapiens;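 also: growth inhibition of ML-2 cells, measured with a cell viability readout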
Description: SANGER: Inhibition of human ML-2 cell growth in a cell viability assay.

KARPAS-299 = type: functional, cell-based; conditions: Homo sapiens
Description: SANGER: Inhibition of human KARPAS-299 cell growth in a cell viability assay.

A2058 = type: functional, cell-based; conditions: Homo sapiens;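 also: reduction of A2058 cell growth, read out with a viability assay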
Description: SANGER: Inhibition of human A2058 cell growth in a cell viability assay.

LB2241-RCC = type: functional, cell-based, Homo sapiens; conditions: Homo sapiens, LB2241-RCC;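 also: cell viability assay measuring how strongly the cultured human renal carcinoma line is prevented from growing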
Description: SANGER: Inhibition of human LB2241-RCC cell growth in a cell viability assay.

COR-L23 = type: functional, cell-based, Homo sapiens; conditions: Homo sapiens, COR-L23;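 also: cell viability assay measuring how strongly compounds suppress growth of COR-L23 cells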
Description: SANGER: Inhibition of human COR-L23 cell growth in a cell viability assay.

K562 = type: functional, cell-based; conditions: Homo sapiens
Description: SANGER: Inhibition of human K-562 cell growth in a cell viability assay.

LU-99A = type: functional, cell-based, Homo sapiens; conditions: Homo sapiens, LU-99A;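 also: growth inhibition of LU-99A cells, read out with a cell viability assay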
Description: SANGER: Inhibition of human LU-99A cell growth in a cell viability assay.

RXF 393 = type: functional, cell-based; conditions: Homo sapiens;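 also: growth inhibition of human RXF 393 cells, read out with a cell viability assay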
Description: SANGER: Inhibition of human RXF393 cell growth in a cell viability assay.

NCI-H1155 = type: functional, cell-based; conditions: Homo sapiens;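 also: cell growth inhibition measured by a viability assay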
Description: SANGER: Inhibition of human NCI-H1155 cell growth in a cell viability assay.

In the case of `CC(=O)O[C@@H]1[C@@H](OC(C)=O)[C@@H](O)[C@H](Oc2c(-c3ccc(O)cc3)oc3cc(O)cc(O)c3c2=O)O[C@H]1C`, the IC50 (NCI-H1650) is reported as > 10000 nM, the IC50 (647-V) is reported as > 10000 nM and the IC50 (HEL) is reported as > 10000 nM. For the same compound, the IC50 (OVCAR-5) was > 10000 nM, the IC50 (HCC1937) was > 10000 nM and the IC50 (PC-3) was > 10000 nM. For the same compound, the IC50 (UACC-62) was > 10000 nM, the IC50 (COLO-678) was > 10000 nM and the IC50 (OE19) was > 10000 nM. For the same compound, the IC50 (RD) was > 10000 nM, the IC50 (Becker) was > 10000 nM and the IC50 697 was > 10000 nM. For the same compound, the IC50 (MCF7) was > 10000 nM, the IC50 (HuO-3N1) was 2780 nM and the IC50 (SW780) was > 10000 nM. The IC50 (KP-N-YS) was > 10000 nM, the IC50 (DEL) was > 10000 nM and the IC50 (BHY) was > 10000 nM. For the same compound, the IC50 (SW1463) was > 10000 nM, the IC50 (LOX IMVI) was > 10000 nM and the IC50 (COLO-792) was > 10000 nM. The IC50 (NCI-H1355) was > 10000 nM, the IC50 (EW-11) was > 10000 nM and the IC50 (HD-MY-Z) was > 10000 nM. The IC50 (MG-63) was > 10000 nM, the IC50 (MMAC-SF) was > 10000 nM and the IC50 (A4-Fuk) was > 10000 nM. The IC50 (TE-1) was > 10000 nM, the IC50 (S-117) was > 10000 nM and the IC50 (SCC-9) was > 10000 nM. For the same compound, the IC50 (SW48) was > 10000 nM, the IC50 (ES6) was > 10000 nM and the IC50 (OCUB-M) was > 10000 nM. For the same compound, the IC50 (LXF-289 cell line) was > 10000 nM, the IC50 (Calu-6) was > 10000 nM and the IC50 (SNU-C2B) was > 10000 nM. For the same compound, the IC50 (PC-14) was > 10000 nM, the IC50 (COLO-668) was > 10000 nM and the IC50 (NCI-H28) was > 10000 nM. The IC50 (Hs-578T) was > 10000 nM, the IC50 (HMV-2 cell line) was > 10000 nM and the IC50 (CAL-27) was > 10000 nM. For the same compound, the IC50 (ML-2) was > 10000 nM, the IC50 (KARPAS-299) was > 10000 nM and the IC50 (A2058) was > 10000 nM. For the same compound, the IC50 (LB2241-RCC) was > 10000 nM, the IC50 (COR-L23) was > 10000 nM and the IC50 (K562) was > 10000 nM. The IC50 (LU-99A) was > 10000 nM, the IC50 (RXF 393) was > 10000 nM and the IC50 (NCI-H1155) was > 10000 nM.

With `C=CCNC1=C2C[C@@H](C)C[C@H](OC)[C@H](O)[C@@H](C)/C=C(\C)[C@H](OC(N)=O)[C@@H](OC)/C=C\C=C(/C)C(=O)NC(=CC1=O)C2=O` [TANESPIMYCIN] the IC50 (NCI-H1650) was 201 nM, the IC50 (647-V) was > 1000 nM and the IC50 (HEL) was > 1000 nM. For the same compound, the IC50 (OVCAR-5) was 34.8 nM, the IC50 (HCC1937) was 163 nM and the IC50 (PC-3) was 515 nM. For the same compound, the IC50 (UACC-62) was 322 nM, the IC50 (COLO-678) was 240 nM and the IC50 (OE19) was 30.8 nM. The IC50 (RD) was 191 nM, the IC50 (Becker) was 38.9 nM and the IC50 697 was > 1000 nM. It also gave an IC50 (MCF7) of 96.8 nM, an IC50 (HuO-3N1) of 52.4 nM and an IC50 (SW780) of 42 nM. The IC50 (KP-N-YS) was 375 nM, the IC50 (DEL) was 185 nM and the IC50 (BHY) was 237 nM. For the same compound, the IC50 (SW1463) was > 1000 nM, the IC50 (LOX IMVI) was 58.7 nM and the IC50 (COLO-792) was 313 nM. For the same compound, the IC50 (NCI-H1355) was 281 nM, the IC50 (EW-11) was > 1000 nM and the IC50 (HD-MY-Z) was 109 nM. The IC50 (MG-63) was > 1000 nM, the IC50 (MMAC-SF) was 105 nM and the IC50 (A4-Fuk) was > 1000 nM. For the same compound, the IC50 (TE-1) was 92 nM, the IC50 (S-117) was 206 nM and the IC50 (SCC-9) was 167 nM. For the same compound, the IC50 (SW48) was 50.4 nM, the IC50 (ES6) was > 1000 nM and the IC50 (OCUB-M) was > 1000 nM. The IC50 (LXF-289 cell line) was 4.19 nM, the IC50 (Calu-6) was > 1000 nM and the IC50 (SNU-C2B) was 580 nM. The IC50 (PC-14) was 132 nM, the IC50 (COLO-668) was > 1000 nM and the IC50 (NCI-H28) was 118 nM. It also gave an IC50 (Hs-578T) of 72.1 nM, an IC50 (HMV-2 cell line) of 120 nM and an IC50 (CAL-27) of 190 nM. The IC50 (ML-2) was 231 nM, the IC50 (KARPAS-299) was > 1000 nM and the IC50 (A2058) was 72.3 nM. For the same compound, the IC50 (LB2241-RCC) was 101 nM, the IC50 (COR-L23) was 468 nM and the IC50 (K562) was > 1000 nM. For the same compound, the IC50 (LU-99A) was 62.4 nM, the IC50 (RXF 393) was 120 nM and the IC50 (NCI-H1155) was 262 nM.
